The values below come from patent publication US6673827B1, “Methods of treating fungal infections with inhibitors of NAD synthetase enzyme” (priority 1999, dated 2004).

Converted amounts (≈) assume the structure as drawn. Read-outs that look alike come from different tables or passages of the source. Some results are limits rather than exact numbers.

Test [1] concerns Candida albicans (ATCC 10231). The test can be described thus: Minimum Inhibitory Concentration (MIC) against yeast, broth dilution. The format is cell-based. The conditions noted are these: 37° C., 20 hours, mean of duplicate.
Test [2] relates to Candida albicans LH-000664533. The test is described as follows: In vitro study of inhibition of growth and lethality against yeast (MIC/MLC susceptibility test), isolate D. The format is cell-based. The conditions noted are these: Candida albicans, 2nd pair of lines, isolate assigned by line order; for MFC: LH000664533, read-out: Minimum Lethal Conc. (MLC).
Test [3] deals with Torulopsis glabrata JHC-BC9951635. The test can be described thus: In vitro study of inhibition of growth and lethality against yeast (MIC/MLC susceptibility test), isolate E. The conditions noted are these: Torulopsis glabrata, 2nd pair of lines, isolate assigned by line order; for MIC / MFC: Nakaseomyces glabratus; for MFC: JHCBC9951635, read-out: Minimum Lethal Conc. (MLC). Type of test: cell-based.

The subject of test [4] is Cryptococcus neoformans DLB-1027594CNC. The test can be described thus: In vitro study of inhibition of growth and lethality against yeast (MIC/MLC susceptibility test), isolate G. The format is cell-based. The conditions noted are these: Cryptococcus neoformans, 1st pair of lines, isolate assigned by line order; for MIC / MFC: DLB1027594CNC; for MFC: read-out: Minimum Lethal Conc. (MLC).

Test [5] has as its system Candida tropicalis ATCC 750. The test can be described thus: In vitro study of inhibition of growth and lethality against yeast (MIC/MLC susceptibility test), isolate A. Type of test: cell-based. The settings on record: Candida tropicalis, 2nd pair of lines, isolate assigned by line order; for MFC: ATCC750, read-out: Minimum Lethal Conc. (MLC).
The target in test [6] is T1, NAD synthetase (recombinant protein from B. subtilis; purified) (Bacillus subtilis, UniProt P08164).
T1 construct: made in house
The test can be described thus: NAD synthetase enzyme inhibition assay (coupled enzymatic assay, HTS). The conditions noted are these: IC50 (μg/mL) for Inhibit. of NAD Synthetase, table of structures used in the yeast assay (Example 4). Type of test: biochemical. As for the experimental part: NAD Synthetase Enzyme Inhibition Assay-Determination of Test Compound Concentrations Providing 50% Inhibition ([…]) of the Maximum Enzyme Rate
The potential inhibitory activity of the synthetic compounds was determined by the use of a coupled enzymatic assay. The coupled assay involves two steps as summarized below. [drawing 98]
The measurement of inhibitory activities of the test compounds was facilitated by the use of a high through-put screening system (HTS system). The HTS system utilizes an integrated Sagian 2M ORCA robotic system coordinating the functions of a Beckman Biomek 2000 liquid handler and a Molecular Devices SpectraMax Plus spectrophotometer. The 2M ORCA robotic station is responsible for the movement of all hardware and the integration of multiple stations on the worksurface. The Biomek 2000 is programmed to perform all phases of liquid dispensing and mixing. The SpectraMax Plus spectrophotometer is equipped to monitor absorbance in a 96-well plate format.
The Biomek 2000 mixes these components utilizing a predefined mixing program. […] The reaction is monitored by measuring the increase in absorbance at 340 nm (NADH). The linear portion of the reaction is monitored for 180 sec. The initial velocity is determined using Softmax Pro, the software supplied with the Molecular Devices SpectrMax Plus spectrophotometer.
The test compounds were supplied as a stock solution with a concentration of 50 mM dissolved in 100% dimethyl sulfoxide (DMSO). An initial screen was conducted on all compounds using a 2 or 3 concentration screen. The 2 panel screen used concentrations of 0.2 mM and 0.1 mM for the compounds. The 3 panel screen used concentrations of 0.2 mM, 0.1 mM, and 0.05 mM. […] The IC50 values for each compound were determined graphically from a plot of % inhibition versus […].

The subject of test [7] is Candida albicans KJP-000531594. The test can be described thus: In vitro study of inhibition of growth and lethality against yeast (MIC/MLC susceptibility test), isolate C. The format is cell-based. The conditions noted are these: Candida albicans, Candida albicans, 1st pair of lines; for MFC: KJP000531594, read-out: Minimum Lethal Conc. (MLC).
Test [8] has as its system Cryptococcus neoformans SLP-BC0012854. The test is described as follows: In vitro study of inhibition of growth and lethality against yeast (MIC/MLC susceptibility test), isolate H. The format is cell-based. The settings on record: Cryptococcus neoformans, 2nd pair of lines, isolate assigned by line order; for MFC: SLPBC0012854, read-out: Minimum Lethal Conc. (MLC).
Test [9] has as its system Torulopsis glabrata ERH-BC9938274. The test is described as follows: In vitro study of inhibition of growth and lethality against yeast (MIC/MLC susceptibility test), isolate F. The format is cell-based. The settings on record: Torulopsis glabrata, 1st pair of lines, isolate assigned by line order; for MIC / MFC: Nakaseomyces glabratus; for MFC: ERHBC9938274, read-out: Minimum Lethal Conc. (MLC).

Test [10] concerns Candida tropicalis ATCC 28707. The test is described as follows: In vitro study of inhibition of growth and lethality against yeast (MIC/MLC susceptibility test), isolate B. Type of test: cell-based. The conditions noted are these: Candida tropicalis, 1st pair of lines, isolate assigned by line order; for MFC: ATCC28707, read-out: Minimum Lethal Conc. (MLC).
Where [11] appears, read: LH000664533, 24 h, read at 24 hr, read-out: Minimum Inhibitory Conc. (MIC), 24 hr.
Where [12] appears, read: LH000664533, 48 h, read at 48 hr, read-out: Minimum Inhibitory Conc. (MIC), 48 hr.
The mark [13] stands for this setting: JHCBC9951635, 24 h, read at 24 hr, read-out: Minimum Inhibitory Conc. (MIC), 24 hr.
Where [14] appears, read: JHCBC9951635, 48 h, read at 48 hr, read-out: Minimum Inhibitory Conc. (MIC), 48 hr.
Where [15] appears, read: 48 h, read at 48 hr, read-out: Minimum Inhibitory Conc. (MIC), 48 hr.
Setting [16] is: 72 h, read at 72 hr, read-out: Minimum Inhibitory Conc. (MIC), 72 hr.
The mark [17] stands for this setting: ATCC750, 24 h, read at 24 hr, read-out: Minimum Inhibitory Conc. (MIC), 24 hr.
Setting [18] is: ATCC750, 48 h, read at 48 hr, read-out: Minimum Inhibitory Conc. (MIC), 48 hr.
[19] abbreviates: KJP000531594, 24 h, read at 24 hr, isolate not given, assigned by line order and MLC of Table 4B, read-out: Minimum Inhibitory Conc. (MIC), 24 hr.
Where [20] appears, read: KJP000531594, 48 h, read at 48 hr, isolate assigned by line order, read-out: Minimum Inhibitory Conc. (MIC), 48 hr.
[21] abbreviates: SLPBC0012854, 48 h, read at 48 hr, read-out: Minimum Inhibitory Conc. (MIC), 48 hr.
Where [22] appears, read: SLPBC0012854, 72 h, read at 72 hr, read-out: Minimum Inhibitory Conc. (MIC), 72 hr.
Setting [23] is: ERHBC9938274, 24 h, read at 24 hr, read-out: Minimum Inhibitory Conc. (MIC), 24 hr.
The mark [24] stands for this setting: ERHBC9938274, 48 h, read at 48 hr, read-out: Minimum Inhibitory Conc. (MIC), 48 hr.
[25] abbreviates: ATCC28707, 24 h, read at 24 hr, read-out: Minimum Inhibitory Conc. (MIC), 24 hr.
The mark [26] stands for this setting: ATCC28707, 48 h, read at 48 hr, read-out: Minimum Inhibitory Conc. (MIC), 48 hr.

The term MIC denotes the lowest concentration found to suppress growth. As usually defined, the IC50 is the midpoint of a concentration-inhibition curve.

T1 sequence (P08164 whole entry): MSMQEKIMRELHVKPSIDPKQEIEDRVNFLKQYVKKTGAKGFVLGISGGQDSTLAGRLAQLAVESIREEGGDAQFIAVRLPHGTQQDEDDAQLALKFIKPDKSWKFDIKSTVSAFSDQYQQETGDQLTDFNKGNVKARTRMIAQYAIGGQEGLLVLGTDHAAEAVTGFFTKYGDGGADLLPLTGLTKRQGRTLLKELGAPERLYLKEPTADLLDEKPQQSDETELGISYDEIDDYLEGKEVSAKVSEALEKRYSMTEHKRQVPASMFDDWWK

`COC(=O)c1cc2cc(OCc3ccccc3)ccc2n1CCCCCCCCOC(=O)c1ccc[n+](C)c1` [Compound 977]: the “MIC Candida albicans (ATCC 10231)” value in test [1] is 1.6 µg/mL.

With `COC(=O)c1cc2ccccc2n1CCCCCCCCOC(=O)Cc1ccc([N+](C)(C)C)cc1` [Compound 985], the “MIC Candida albicans (ATCC 10231)” value in test [1] was found to be 1.6 µg/mL.

Regarding `COC(=O)c1cc2cc(OCc3ccccc3)ccc2n1CCCCCCCOC(=O)c1ccc[n+](C)c1` [Compound 976], the “MIC Candida albicans (ATCC 10231)” value in test [1] amounted to 3.1 µg/mL.

As for `C[N+](C)(C)C(Cc1ccccc1)C(=O)OCCCCCCCCOc1ccc(OCc2ccccc2)cc1.[I-]` (centres unmarked) [Compound 1230], the “Minimum Inhibitory Conc. (MIC), 24 hr.” value came to 1 µg/mL in test [2] (read at 24 hr) and 2 µg/mL in test [3] (read at 24 hr). In addition, the “Minimum Inhibitory Conc. (MIC), 48 hr.” value in test [2] (read at 48 hr) turned out to be 2 µg/mL; in test [4] (read at 48 hr), 0.5 µg/mL. The minimum inhibitory concentration (MIC) in test [2] (setting [11]) was determined as 2 µg/mL; in [2] (setting [12]), 4 µg/mL; in test [3] (setting [13]), 1 µg/mL; in test [3] (setting [14]), 2 µg/mL; in [4] (setting [15]), 1 µg/mL; in test [4] (setting [16]), 1 µg/mL. For the same compound, the MIC in test [5] (setting [17]) is 1 µg/mL; in test [5] (setting [18]), 1 µg/mL; in [7] (setting [19]), 1 µg/mL; in [7] (setting [20]), 2 µg/mL; in test [8] (setting [21]), 1 µg/mL; in test [8] (setting [22]) it was 1 µg/mL. Besides, the minimum inhibitory concentration (MIC) in test [9] (setting [23]) was determined as 2 µg/mL; in test [9] (setting [24]), 2 µg/mL; in test [10] (setting [25]), 0.5 µg/mL; in [10] (setting [26]) it was 0.5 µg/mL. Also, the MFC in test [2] stood at 2 µg/mL; in test [3] it was 2 µg/mL; in test [4], 4 µg/mL; in test [5], 1 µg/mL; in [7] (isolate assigned by line order) it was 2 µg/mL; in [8], 4 µg/mL. For the same compound, the results for the MFC in test [9] and in test [10] were 2 µg/mL and 1 µg/mL, respectively. For the same compound, the “Minimum Inhibitory Conc. (MIC), 72 hr.” value in test [4] (read at 72 hr) and in [8] (read at 72 hr) was 2 µg/mL in each case. Also, the IC50 in test [6] is 31 µM.

On to `COC(=O)c1cc2cc(OCc3ccccc3)ccc2n1CCCCCCCOC(=O)c1ccc(CN(C)C)cc1` [Compound 1096], for which the minimal inhibitory concentration (MIC) in test [2] (setting [11]), in test [2] (setting [12]), in test [3] (setting [13]), in test [3] (setting [14]), in test [4] (setting [16]) and in test [5] (setting [17]) was greater than 32 µg/mL each time. Further, the MIC in [5] (setting [18]), in [7] (setting [19]), in test [7] (setting [20]), in test [8] (setting [21]), in [8] (setting [22]) and in test [9] (setting [23]) was greater than 32 µg/mL in each case. Besides, the values for the minimal inhibitory concentration (MIC) in test [9] (setting [24]), in test [10] (setting [25]) and in test [10] (setting [26]) were greater than 32 µg/mL, 4 µg/mL (≈ 7.19 µM) and 8 µg/mL (≈ 14.4 µM), respectively. Also, the MFC in test [2], in [3], in test [4], in test [5], in test [7] (isolate assigned by line order) and in [8] was greater than 32 µg/mL throughout. For the same compound, the MFC in [9] is greater than 32 µg/mL; in test [10], 16 µg/mL (≈ 28.7 µM). In addition, the “Minimum Inhibitory Conc. (MIC), 72 hr.” value in test [4] (read at 72 hr) came out at 16 µg/mL; in test [8] (read at 72 hr) it was 32 µg/mL. Also, the half-maximal inhibitory concentration (IC50) in [6] was 180 µM. Moreover, the “Minimum Inhibitory Conc. (MIC), 48 hr.” value in test [8] (read at 48 hr) was 32 µg/mL; in test [10] (read at 48 hr), 16 µg/mL. The “Minimum Inhibitory Conc. (MIC), 24 hr.” value in test [10] (read at 24 hr) worked out at 2 µg/mL.

As to `Cc1[nH]c2ccccc2c1/C=C/C1=[N+](C)c2ccccc2C1(C)C.[Cl-]` [Compound 1400], the minimal inhibitory concentration (MIC) in test [2] (setting [11]) was greater than 32 µg/mL; in test [2] (setting [12]), greater than 32 µg/mL; in test [3] (setting [13]) it was greater than 33 µg/mL; in test [3] (setting [14]), greater than 32 µg/mL; in test [4] (setting [15]) it was greater than 32 µg/mL; in test [4] (setting [16]) it was greater than 32 µg/mL. Further, the minimum inhibitory concentration (MIC) in test [5] (setting [17]), in test [5] (setting [18]), in test [7] (setting [19]), in test [7] (setting [20]), in [8] (setting [21]) and in test [8] (setting [22]) was greater than 32 µg/mL in each case. Further, the minimum inhibitory concentration (MIC) in test [9] (setting [23]) was greater than 34 µg/mL; in [9] (setting [24]), greater than 32 µg/mL; in test [10] (setting [25]) it was 16 µg/mL; in test [10] (setting [26]), 32 µg/mL. For the same compound, the MFC in test [2], in test [3], in test [4], in test [5], in [7] (isolate assigned by line order) and in test [8] was greater than 32 µg/mL each time. The values for the MFC in test [9] and in [10] were greater than 32 µg/mL and 16 µg/mL, respectively. For the same compound, the “Minimum Inhibitory Conc. (MIC), 24 hr.” value in test [3] (read at 24 hr) and in test [9] (read at 24 hr) was greater than 32 µg/mL in each case. The concentration for half-maximal inhibition (IC50) in test [6] is greater than 570 µM. The “Minimum Inhibitory Conc. (MIC), 48 hr.” value in test [10] (read at 48 hr) was found to be 16 µg/mL.

Regarding `COC(=O)c1cc2ccccc2n1CCCCCCCCCOC(=O)Cc1ccc([N+](C)(C)C)cc1` [Compound 986], in [1], the “MIC Candida albicans (ATCC 10231)” value came out at 2.3 µg/mL.
